In PubChem BioAssay AID1963864 (Molecular Pharmacology Branch, DTP, NCI, 2024):

System: KRAS PDC multicell spheroid viability
Assay: Anticancer human tumor 521955-158-R6-J3-PDC patient-derived pancreatic carcinoma cell line growth inhibition [KRAS2]
Details: for IC50: curve of first compound; for viability, T/C: stronger effect = lower value
From the text: Multicellular complex tumor spheroid response to RAS pathway inhibitors in combination with a targeted agents in patient-derived cell lines with oncogenic KRAS variants from multiple cancer types
A high-throughput screen of multi-cell type tumor spheroids was designed to identify active combinations of targeted small molecules and KRAS pathway inhibitors. Complex spheroids include a stromal component modeled by human endothelial cells (HUVEC) and fibroblasts modeled by human mesenchymal stem cells (MSCs). The concentration ranges selected for each drug and investigational agent were based upon clinically achievable concentrations if the clinical Cmax of the agent was known.
Compounds. The drugs and investigational agents: BI-3406 (NSC825286), BAY-293 (NSC824723), batoprotafib (TNO155; NSC825523), sotorasib (AMG 510; NSC818433), MRTX1257 (NSC819558), elimusertib (BAY 1895344; NSC800525), molibresib (GSK525762; NSC774829), temuterkib (LY3214996; NSC803410), venetoclax (NSC766270), alisertib (NSC759677), olaparib (NSC753686), talazoparib (NSC767125), erdafitinib (NSC781556), ipatasertib (NSC767898), cabozantinib (NSC761068), nintedanib (NSC756659), abemaciclib (NSC768073), docetaxel (NSC628503), trametinib (NSC758246), and sapanisertib (NSC764658) were obtained from the National Cancer Institute (NCI) Developmental Therapeutics Program Chemical Repository. The FDA-approved anticancer drug set is available from the Developmental Therapeutics Program. […] The stock solutions were prepared in dimethyl sulfoxide (DMSO, Sigma-Aldrich, St. Louis, MO, cat. D2650) at 800-fold the tested concentration and stored at -70 degrees C prior to their use. All drugs and investigational agents were tested over a range starting from a high concentration at or near the clinical Cmax and decreasing in half-log increments. If the clinical Cmax for an agent had not been determined, the highest concentration tested was 10 microM.
Cell Culture. All cells were maintained in an incubator at 37 degrees C and 5% CO2 with 95% humidity. The PDC lines were cultured according to standard operating procedures established by the NCI PDMR (https://pdmr.cancer.gov/sops/default.htm). Briefly, all PDCs were thawed and cultured in Matrigel-coated flasks prepared with a working solution of 1X Ham's F-12 nutrient mix, without supplementation (Invitrogen, Waltham, MA, cat. 11765054), 100 U/mL penicillin-streptomycin (Invitrogen, cat. 15140122), and 2.5% Matrigel (Corning Inc., Corning, NY, cat. 354248) for the first three passages. All PDCs were cultured in complete DMEM/F-12 media containing advanced DMEM/F-12 (Invitrogen, cat. 12634028), 4.9% defined fetal bovine serum, heat inactivated (HyClone Laboratories Inc., Logan, UT, cat. SH30070.03HI), 389 ng/mL hydrocortisone (Sigma-Aldrich, cat. H4001), 9.7 ng/mL human EGF recombinant protein (Invitrogen, cat. PHG0313), 23.4 microg/mL adenine (Sigma-Aldrich, cat. A2786), 97.3 U/mL penicillin-streptomycin (Invitrogen, cat. 15140122), 1.9 mM L-glutamine (Invitrogen, cat. 25030081), and 9.7 microM Y-27632 dihydrochloride (Tocris Bioscience, Bristol, United Kingdom, cat. 1254). The PDCs were cultured in complete DMEM/F12 media without 9.7 microM Y-27632 dihydrochloride for at least two passages prior to the screen. The established cell line HOP-62 was cultured in RPMI 1640 medium, HEPES (Invitrogen, cat. 22400105) with 10% defined fetal bovine serum (HyClone Laboratories Inc., cat. SH30070.03) and 2 mM L-glutamine (Invitrogen, cat. 25030081). The pooled donor HUVEC were cultured in endothelial cell growth medium 2 (PromoCell, Heidelberg, Germany, cat. C-22011) and the hMSC were cultured in mesenchymal stem cell growth medium 2 (PromoCell, cat. C-28009). For all experiments, HUVEC and hMSC were used at passages </=5, while the malignant cell lines were used at passages </=15. […]

[1] = second compound 0.1 µM, first compound 0.0316 µM
[2] = second compound 0.1 µM, first compound 0.1 µM
[3] = second compound 0.1 µM, first compound 0.316 µM
[4] = second compound 0.1 µM, first compound 1 µM
[5] = second compound 0.1 µM, first compound 3.16 µM
[6] = second compound 0.1 µM, first compound 10 µM
[7] = second compound 0.316 µM, first compound 0.0316 µM
[8] = second compound 0.316 µM, first compound 0.1 µM
[9] = second compound 0.316 µM, first compound 0.316 µM
[10] = second compound 0.316 µM, first compound 1 µM
[11] = second compound 0.316 µM, first compound 3.16 µM
[12] = second compound 0.316 µM, first compound 10 µM
[13] = second compound 1 µM, first compound 0.0316 µM
[14] = second compound 1 µM, first compound 0.1 µM
[15] = second compound 1 µM, first compound 0.316 µM
[16] = second compound 1 µM, first compound 1 µM
[17] = second compound 1 µM, first compound 3.16 µM
[18] = second compound 1 µM, first compound 10 µM
[19] = second compound 3.16 µM, first compound 0.0316 µM
[20] = second compound 3.16 µM, first compound 0.1 µM
[21] = second compound 3.16 µM, first compound 0.316 µM
[22] = second compound 3.16 µM, first compound 1 µM
[23] = second compound 3.16 µM, first compound 3.16 µM
[24] = second compound 3.16 µM, first compound 10 µM
[25] = second compound 10 µM, first compound 0.0316 µM
[26] = second compound 10 µM, first compound 0.1 µM
[27] = second compound 10 µM, first compound 0.316 µM
[28] = second compound 10 µM, first compound 1 µM
[29] = second compound 10 µM, first compound 3.16 µM
[30] = second compound 10 µM, first compound 10 µM
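Further: drug exposure lasted seven days.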
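Wherever viability, T/C is given: 100% = DMSO vehicle wells and lower means fewer viable cells.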

SMILES	IC50 (second compound 0.1 µM) [µM]	IC50 (second compound 0.316 µM) [µM]	IC50 (second compound 1 µM) [µM]	IC50 (second compound 3.16 µM) [µM]	IC50 (second compound 10 µM) [µM]	viability, T/C [1] [%]	viability, T/C [2] [%]	viability, T/C [3] [%]	viability, T/C [4] [%]	viability, T/C [5] [%]	viability, T/C [6] [%]	viability, T/C [7] [%]	viability, T/C [8] [%]	viability, T/C [9] [%]	viability, T/C [13] [%]	viability, T/C [14] [%]	viability, T/C [19] [%]	viability, T/C [20] [%]	viability, T/C [25] [%]	viability, T/C [26] [%]	other results
CC(C)NCC(C(=O)N1CCN(c2ncnc3c2C(C)CC3O)CC1)c1ccc(Cl)cc1 (stereo not given) + C=CC(=O)N1CCN(c2nc(=O)n(-c3c(C)ccnc3C(C)C)c3nc(-c4c(O)cccc4F)c(F)cc23)C(C)C1	> 10	> 10	> 10	> 10	0.683	90.8	90.4	74.5	76.2	79.5	65.7	94.4	89	72.5	93.5	83.4	85.7	72	75.3	63.2	viability, T/C [10]: 81.3%; viability, T/C [11]: 79.8%; viability, T/C [12]: 58.6%; viability, T/C [15]: 75.8%; viability, T/C [16]: 69.7%; viability, T/C [17]: 66.9%; viability, T/C [18]: 65.5%; viability, T/C [21]: 66.5%; viability, T/C [22]: 64.9%; viability, T/C [23]: 57.4%; viability, T/C [24]: 57.4%; viability, T/C [27]: 54.6%; viability, T/C [28]: 43.3%; viability, T/C [29]: 50.3%; viability, T/C [30]: 43.7%
CC1(C)CCC(CN2CCN(c3ccc(C(=O)NS(=O)(=O)c4ccc(NCC5CCOCC5)c([N+](=O)[O-])c4)c(Oc4cnc5[nH]ccc5c4)c3)CC2)=C(c2ccc(Cl)cc2)C1 + C=CC(=O)N1CCN(c2nc(=O)n(-c3c(C)ccnc3C(C)C)c3nc(-c4c(O)cccc4F)c(F)cc23)C(C)C1	5.94	7.34	4.83	6.49	2.96	89.3	98.8	97.1	93.2	72.2	31.6	113	112	101	111	104	91.9	93.5	89.2	104	viability, T/C [10]: 102%; viability, T/C [11]: 77.5%; viability, T/C [12]: 39.5%; viability, T/C [15]: 106%; viability, T/C [16]: 95.8%; viability, T/C [17]: 65.4%; viability, T/C [18]: 23.4%; viability, T/C [21]: 95.2%; viability, T/C [22]: 92.1%; viability, T/C [23]: 67.2%; viability, T/C [24]: 39.6%; viability, T/C [27]: 88.7%; viability, T/C [28]: 73.5%; viability, T/C [29]: 49.8%; viability, T/C [30]: 25.7%
Cn1ncnc1[C@H]1c2n[nH]c(=O)c3cc(F)cc(c23)N[C@@H]1c1ccc(F)cc1 + C=CC(=O)N1CCN(c2nc(=O)n(-c3c(C)ccnc3C(C)C)c3nc(-c4c(O)cccc4F)c(F)cc23)C(C)C1	> 0.1	> 0.1	> 0.1	> 0.1	> 0.1	96.5	95					105	108		110	118	99.7	96.4	82.5	78	viability, T/C (second compound 0.1 µM, first compound 0.000316 µM): 106%; viability, T/C (second compound 0.1 µM, first compound 0.001 µM): 109%; viability, T/C (second compound 0.1 µM, first compound 0.00316 µM): 101%; viability, T/C (second compound 0.1 µM, first compound 0.01 µM): 107%; viability, T/C (second compound 0.316 µM, first compound 0.000316 µM): 110%; viability, T/C (second compound 0.316 µM, first compound 0.001 µM): 102%; viability, T/C (second compound 0.316 µM, first compound 0.00316 µM): 116%; viability, T/C (second compound 0.316 µM, first compound 0.01 µM): 94.9%; viability, T/C (second compound 1 µM, first compound 0.000316 µM): 114%; viability, T/C (second compound 1 µM, first compound 0.001 µM): 109%; viability, T/C (second compound 1 µM, first compound 0.00316 µM): 118%; viability, T/C (second compound 1 µM, first compound 0.01 µM): 97.5%; viability, T/C (second compound 3.16 µM, first compound 0.000316 µM): 102%; viability, T/C (second compound 3.16 µM, first compound 0.001 µM): 104%; viability, T/C (second compound 3.16 µM, first compound 0.00316 µM): 101%; viability, T/C (second compound 3.16 µM, first compound 0.01 µM): 100%; viability, T/C (second compound 10 µM, first compound 0.000316 µM): 81.8%; viability, T/C (second compound 10 µM, first compound 0.001 µM): 80.2%; viability, T/C (second compound 10 µM, first compound 0.00316 µM): 83.4%; viability, T/C (second compound 10 µM, first compound 0.01 µM): 83.2%
